In patent publication US8680111B2 (Pfizer Inc., priority 2012, dated 2014) one finds Ki data, which are given here for 24 compounds.

Assay [1] has as its target T1, human recombinant L1196M ALK kinase domain (amino acids 1093-1411) (Homo sapiens, UniProt Q9UM73, L1196M).
T1 construct: ALK kinase domain (amino acids 1093-1411); made in house
The experiment in a line: L1196M mutant ALK enzyme assay (microfluidic mobility shift). The conditions noted are these: ATP 60 μM, 0.5 nM enzyme, competitive inhibition fit; read-out: L1196M ALK enzyme assay (Ki). The class given is biochemical.

For assay [2], the target named is T2, human recombinant wild-type ALK kinase domain (amino acids 1093-1411) (Homo sapiens, UniProt Q9UM73).
T2 construct: ALK kinase domain (amino acids 1093-1411); made in house
The experiment in a line: Wild-type ALK enzyme assay (microfluidic mobility shift). The class given is biochemical. The following applies: ATP 60 μM, competitive inhibition fit, read-out: WT ALK enzyme assay (Ki).
Method: The reactions were incubated for 1 h at room temperature, stopped by the addition of 0.1 M EDTA, pH 8, and the extent of reactions (˜15-20% conversion with no inhibitor) was determined after electrophoretic separation of the fluorescently labeled peptide substrate and phosphorylated product on an LabChip EZ Reader II (Caliper Life Sciences, Hopkinton, Mass.).

A word on the Ki: it is the equilibrium dissociation constant of an inhibitor or competing ligand from its target.

Where only a bound is given, the exact number is not on record here.

`CC1Oc2cc(cnc2N)-c2c(cnn2C)CCCCCOc2ccc(F)cc21` (single isomer, unassigned) [Example 131, 12-fluoro-1,14-dimethyl-1,4,5,6,7,8-hexahydro-14H-16,20-(metheno)-pyrazolo-[4,3-g][1,14,11]benzodioxazacycloheptadecin-17-amine]: the Ki in assay [1] was 794 nM; in assay [2], 78.3 nM.
For `CN1Cc2nn(C)c(C#N)c2-c2cnc(N)c(n2)O[C@@H](CF)c2cc(F)ccc2C1=O` [Example 94, (10R)-7-amino-12-fluoro-10-(fluoromethyl)-2,16-dimethyl-15-oxo-10,15,16,17-tetrahydro-2H-8,4-(azeno)pyrazolo[4,3-h][2,5,11]benzoxadiazacyclotetradecine-3-carbonitrile], in that order: 698 nM and 930 nM.
As for `Cn1nc2c(c1C#N)-c1cnc(N)c(n1)OCc1cc(F)ccc1COC2` [Example 107, 7-amino-12-fluoro-2-methyl-2,10,15,17-tetrahydro-8,4-(azeno)pyrazolo[4,3-h][2,11,5]benzodioxazacyclotetradecine-3-carbonitrile], the Ki was determined as 179 nM in assay [1] and 88.5 nM in assay [2].
For `CC1Oc2cc(cnc2N)-c2c(nn(C)c2C2CC2)CN(C)C(=O)c2ccc(F)cc21` (single isomer, unassigned) [Example 16, 7-amino-3-cyclopropyl-12-fluoro-2,10,16-trimethyl-16,17-dihydro-2H-8,4-(metheno)pyrazolo[4,3-h][2,5,11]benzoxadiazacyclotetradecin-15(10H)-one], in that order: over 2270 nM and 213 nM.
For `COc1c2c(nn1C)CN(C)C(=O)c1ccc(F)cc1C(C)Oc1cc-2cnc1N` (single isomer, unassigned) [Example 20, 7-amino-12-fluoro-3-methoxy-2,10,16-trimethyl-16,17-dihydro-2H-8,4-(metheno)pyrazolo[4,3-h][2,5,11]benzoxadiazacyclotetradecin-15(10H)-one], in that order: 450 nM and 34 nM.
`COc1nn(C)c2c1-c1cnc(N)c(c1)OC(C)c1cccnc1C(=O)N(C)C2` (single isomer, unassigned) [Example 66, 7-amino-3-methoxy-1,10,16-trimethyl-16,17-dihydro-1H-8,4-(metheno)-pyrazolo[4,3-g]pyrido[2,3-l][1,4,10]oxadiazacyclotetradecin-15(10H)-one]: the Ki in assay [1] came to 122 nM; in assay [2] it was 19.3 nM.
The corresponding values for `CC(C)Cn1nnc2c1-c1cnc(N)c(c1)O[C@H](C)c1cc(F)ccc1C(=O)N(C)C2` [Example 134, (10R)-7-amino-12-fluoro-10,16-dimethyl-3-(2-methylpropyl)-16,17-dihydro-3H-8,4-(metheno)[1,2,3]triazolo[4,5-h][2,5,11]benzoxadiazacyclotetradecin-15(10H)-one] are 20.5 nM and 3 nM.
As to `CC1Oc2nc(cnc2N)-c2c(nn(C)c2C#N)COCc2ccc(F)cc21` (single isomer, unassigned) [Example 106, 7-amino-12-fluoro-2,10-dimethyl-2,10,15,17-tetrahydro-8,4-(azeno)pyrazolo[4,3-h][2,11,5]benzodioxazacyclotetradecine-3-carbonitrile], the inhibition constant Ki in assay [1] and in assay [2] was over 3000 nM throughout.
Turning to `Cn1ncc2c1-c1cnc(N)c(c1)OCc1cc(F)ccc1OCCCCC2` [Example 42, 12-fluoro-1-methyl-1,4,5,6,7,8-hexahydro-14H-16,20-(metheno) pyrazolo[4,3-g][1,14,11]benzodioxazacycloheptadecin-17-amine], the Ki was determined as 2.89 nM in assay [1] and 500 nM in assay [2].
For `CC1Oc2cc(cnc2N)-c2c(C(C)(C)C)nn(C)c2CN(C)C(=O)c2ncccc21` (single isomer, unassigned) [Example 68, 7-amino-3-tert-butyl-1,10,16-trimethyl-16,17-dihydro-1H-8,4-(metheno)pyrazolo[4,3-g]pyrido[2,3-l][1,4,10]oxadiazacyclotetradecin-15(10H)-one], in that order: over 1500 nM and 207 nM.
In the case of `CC1Oc2cc(cnc2N)-c2c(cnn2C)CCCCCOc2ccc(F)cc21` (single isomer, unassigned) [Example 130, 12-fluoro-1,14-dimethyl-1,4,5,6,7,8-hexahydro-14H-16,20-(metheno)-pyrazolo-[4,3-g][1,14,11]benzodioxazacycloheptadecin-17-amine], the Ki in assay [1] and in assay [2] was over 3000 nM each time.
As to `C[C@H]1Oc2cc(cnc2N)-c2c(cnc3cccnc23)CN(C)C(=O)c2ccc(F)cc21` [Example 103, (11R)-8-amino-13-fluoro-11,17-dimethyl-17,18-dihydro-9,5-(metheno)-[1,5]naphthyridino[4,3-h][2,5,11]benzoxadiazacyclotetradecin-16(11H)-one], the Ki came out at 131 nM in assay [1] and 9.1 nM in assay [2].
The corresponding values for `CC1Oc2cc(cnc2N)-c2c(nn(C)c2C2CC2)CN(C)C(=O)c2ccc(F)cc21` (single isomer, unassigned) [Example 15, 7-amino-3-cyclopropyl-12-fluoro-2,10,16-trimethyl-16,17-dihydro-2H-8,4-(metheno)pyrazolo[4,3-h][2,5,11]benzoxadiazacyclotetradecin-15(10H)-one] are 2.5 nM and under 0.2 nM.
For “7-amino-12-fluoro-3-methoxy-1,16,17-trimethyl-16,17-dihydro-1H-8,4-(azeno)pyrazolo[4,3-h][2,5,11]benzoxadiazacyclotetradecin-15(10H)-one [Example 128]”, in that order: 386 nM and 138 nM.
The corresponding values for `CC1Oc2nc(cnc2N)-c2c(nn(C)c2C#N)CN(C)C(=O)c2ccc(F)cc21` (single isomer, unassigned) [Example 33, 7-amino-12-fluoro-2,10,16-trimethyl-15-oxo-10,15,16,17-tetrahydro-2H-8,4-(azeno)pyrazolo[4,3-h][2,5,11]benzoxadiazacyclotetradecine-3-carbonitrile] are over 2680 nM and 1010 nM.
Turning to `COc1nn(C)c2c1-c1cnc(N)c(c1)OC(CF)c1cc(F)ccc1C(=O)N(C)C2` (single isomer, unassigned) [Example 87, 7-amino-12-fluoro-10-(fluoromethyl)-3-methoxy-1,16-dimethyl-16,17-dihydro-1H-8,4-(metheno)pyrazolo[4,3-h][2,5,11]benzoxadiazacyclotetradecin-15(10H)-one], the Ki is 51 nM in assay [1] and 270 nM in assay [2].
The corresponding values for `CC1Oc2cc(cnc2N)-c2c(C(C)(C)C)nn(C)c2CN(C)C(=O)c2ncccc21` (single isomer, unassigned) [Example 69, 7-amino-3-tert-butyl-1,10,16-trimethyl-16,17-dihydro-1H-8,4-(metheno)pyrazolo[4,3-g]pyrido[2,3-l][1,4,10]oxadiazacyclotetradecin-15(10H)-one] are over 3000 nM and over 3000 nM.
The corresponding values for “7-amino-12-fluoro-3-methoxy-1,16,17-trimethyl-16,17-dihydro-1H-8,4-(azeno)pyrazolo[4,3-h][2,5,11]benzoxadiazacyclotetradecin-15(10H)-one [Example 126]” are 1070 nM and 540 nM.
Take `CC1Oc2nc(cnc2N)-c2c(nn(C)c2C#N)COCc2ccc(F)cc21` (stereo not drawn) [Example 104, 7-amino-12-fluoro-2,10-dimethyl-2,10,15,17-tetrahydro-8,4-(azeno)pyrazolo[4,3-h][2,11,5]benzodioxazacyclotetradecine-3-carbonitrile]: the figures for the Ki in assay [1] and in assay [2] were 57.5 nM and 8.4 nM, respectively.
The corresponding values for `CC1Oc2cc(cnc2N)-c2c(nn(C)c2C#N)CN(C)C(=O)c2c(F)cccc21` (single isomer, unassigned) [Example 53, 7-amino-14-fluoro-2,10,16-trimethyl-15-oxo-10,15,16,17-tetrahydro-2H-8,4-(metheno)pyrazolo[4,3-h][2,5,11]benzoxadiazacyclotetradecine-3-carbonitrile] are 164 nM and 25.8 nM.
The corresponding values for `CC1c2nn(C)c(C#N)c2-c2cnc(N)c(n2)OCc2cc(F)ccc2C(=O)N1C` (single isomer, unassigned) [Example 80, 7-amino-12-fluoro-2,16,17-trimethyl-15-oxo-10,15,16,17-tetrahydro-2H-8,4-(azeno)pyrazolo[4,3-h][2,5,11]benzoxadiazacyclotetradecine-3-carbonitrile] are over 3000 nM and over 3000 nM.
For `CCC1Oc2cc(cnc2N)-c2c(OC)nn(C)c2CN(C)C(=O)c2ccc(F)cc21` (single isomer, unassigned) [Example 24, 7-amino-10-ethyl-12-fluoro-3-methoxy-1,16-dimethyl-16,17-dihydro-1H-8,4-(metheno)pyrazolo[4,3-h][2,5,11]benzoxadiazacyclotetradecin-15(10H)-one], in that order: 14 nM and 4.6 nM.
With `CCN1Cc2c(c(C)nn2C)-c2cnc(N)c(c2)OC(C)c2cc(F)ccc2C1=O` (single isomer, unassigned) [Example 10, 7-amino-16-ethyl-12-fluoro-1,3,10-trimethyl-16,17-dihydro-1H-8,4-(metheno)pyrazolo[4,3-h][2,5,11]benzoxadiazacyclotetradecin-15(10H)-one], the values for the Ki in assay [1] and in assay [2] were 34 nM and 13 nM, respectively.
Consider `CN1Cc2nn(C)c(C#N)c2-c2cnc(N)c(c2)OC(CF)c2cc(F)ccc2C1=O` (single isomer, unassigned) [Example 84, 7-amino-12-fluoro-10-(fluoromethyl)-2,16-dimethyl-15-oxo-10,15,16,17-tetrahydro-2H-8,4-(metheno)pyrazolo[4,3-h][2,5,11]benzoxadiazacyclotetradecine-3-carbonitrile], for which the Ki in assay [1] worked out at 90.2 nM; in assay [2] it was 29.3 nM.
